The source of these data is patent publication US9884049B2, “Microbicidal composition comprising an octoxynol and a quinolizidine alkaloid compound or a source thereof” (NOVICOL INTERNATIONAL HOLDING INC., priority 2014, dated 2018).

The subject of one data set is HIV-1MN. Kind of data set: Anti-HIV activity, MAGI assay in TZM-b1 cells. The following applies: for EC50: HIV-1MN.
Data set [1] relates to TZM-b1 cells. Kind of data set: Cytotoxicity, CyQuant assay.
Data set [2] has as its system TZM-b1 cells. As to the kind of experiment: Cytotoxicity, XTT assay.
A further data set has as its system HIV-1ADA-M. As to the kind of experiment: Anti-HIV activity, MAGI assay in TZM-b1 cells. The following applies: for EC50: HIV-1ADA-M.
Another data set concerns HIV. The conditions noted are these: nearly 1,000 sex workers in Africa, versus placebo; cited from earlier work.
The mark [3] stands for this setting: Wash (washed four hours after, then 72 h).

In the case of `O=C1CCC[C@@H]2[C@H]3CCCN4CCC[C@@H](CN12)[C@@H]34` [Matrine, matrine], the “TI (CC50/EC50)” value in the data set on HIV-1MN (CyQuant/HIV-1MN, No wash) is reported as 8.91; with HIV-1MN (CyQuant/HIV-1MN, Wash), 7.06; in the data set with HIV-1MN (XTT/HIV-1MN, No wash), 4.46; in the data set with HIV-1MN (XTT/HIV-1MN, Wash) it was 22.08; with HIV-1ADA-M (CyQuant/HIV-1ADA-M, No wash) it was 3.01; in the data set with HIV-1ADA-M (CyQuant/HIV-1ADA-M, Wash) it was 0.89. Further, the “TI (CC50/EC50)” value in the data set on HIV-1ADA-M (XTT/HIV-1ADA-M, No wash) is reported as 1.50; in the data set with HIV-1ADA-M (XTT/HIV-1ADA-M, Wash), 2.80. Also, the EC50 with HIV-1MN (No wash) is on record as 0.0700 % (w/v); in the data set on HIV-1MN (Wash), 0.0500 % (w/v); in the data set on HIV-1ADA-M (No wash) it was 0.2075 % (w/v); in the data set with HIV-1ADA-M (Wash), 0.3948 % (w/v). Moreover, the CC50 is given as 0.6240 % (w/v) in the data set on TZM-b1 cells [1] (No wash (72 h)), 0.3530 % (w/v) in the data set with TZM-b1 cells [1] (setting [3]), 0.3122 % (w/v) in the data set with TZM-b1 cells [2] (No wash) and 1.1040 % (w/v) in the data set on TZM-b1 cells [2] (Wash).
Regarding nonoxynol-9, the “HIV infection rate, higher than with placebo” value in the data set on HIV is on record as “about 50%”.
As to IGEPAL® CA-630, the “TI (CC50/EC50)” value in the data set on HIV-1MN (CyQuant/HIV-1MN, No wash) was 2.95; in the data set on HIV-1MN (CyQuant/HIV-1MN, Wash) it was 1.55; with HIV-1MN (XTT/HIV-1MN, No wash), 0.13; in the data set with HIV-1MN (XTT/HIV-1MN, Wash), 2.31; in the data set on HIV-1ADA-M (CyQuant/HIV-1ADA-M, No wash), 9.73; in the data set on HIV-1ADA-M (CyQuant/HIV-1ADA-M, Wash), 1.38. Moreover, the “TI (CC50/EC50)” value is reported as 0.43 in the data set on HIV-1ADA-M (XTT/HIV-1ADA-M, No wash) and 2.05 with HIV-1ADA-M (XTT/HIV-1ADA-M, Wash). The EC50 with HIV-1MN (No wash) is on record as 0.0012 % (w/v); in the data set on HIV-1MN (Wash) it was 0.0031 % (w/v); with HIV-1ADA-M (No wash), 0.00037 % (w/v); in the data set on HIV-1ADA-M (Wash) it was 0.0035 % (w/v). For the same compound, the CC50 with TZM-b1 cells [1] (No wash (72 h)) is on record as 0.0036 % (w/v); with TZM-b1 cells [1] (setting [3]) it was 0.0048 % (w/v); with TZM-b1 cells [2] (No wash) it was 0.0002 % (w/v); in the data set on TZM-b1 cells [2] (Wash) it was 0.0072 % (w/v).
